Data as given in patent US11746115B2, “Solid forms of 7-[[(1S)-1-[4-[(1S)-2-cyclopropyl-1-(4-prop-2-enoylpiperazin-1-yl)ethyl]phenyl]ethyl]amino]-1-ethyl-4H-pyrimido[4,5-d][1,3]oxazin-2-one” (Eli Lilly and Company, priority 2021, dated 2023).

Assays:
[1] = Preclinical solubility studies of Compound A; format: physicochemical; settings: certain preclinical studies
[2] = Non-sink dissolution (microcentrifuge assay, pH 2 then FaSSIF pH 6.5); format: physicochemical; settings: after FaSSIF pH 6.5 transfer
Protocol: Non-sink dissolution is performed by adding the test composition to a solution of 0.01 N HCl pH 2 (e.g., in a centrifuge tube) and analyzing for 7-[[(1S)-1-[4-[(1S)-2-cyclopropyl-1-(4-prop-2-enoylpiperazin-1-yl)ethyl]phenyl]ethyl]amino]-1-ethyl-4H-pyrimido[4,5-d][1,3]oxazin-2-one solution concentration, by HPLC, at approximately time zero, 20 and 40 minutes. After approximately 40 minutes, a solution of fasted state simulated intestinal fluid (FaSSIF) pH 6.5, with 0.224 wt % bile salts, is added to the pH 2 solution. The 7-[[(1S)-1-[4-[(1S)-2-cyclopropyl-1-(4-prop-2-enoylpiperazin-1-yl)ethyl]phenyl]ethyl]amino]-1-ethyl-4H-pyrimido[4,5-d][1,3]oxazin-2-one concentration is monitored, by HPLC, at approximately 50, 70, 90 and 120 minutes after time zero. At each timepoint the samples are centrifuged at 18,500 g-force for 3 minutes to remove undissolved solids from the sample. For analysis, a supernatant sample (100 μL) is diluted 5× using 1:1 acetonitrile/H2O and analyzed. The non-sink dissolution test is completed at room temperature.

| SMILES | solubility, acidic versus neutral environment [1] | solution concentration at the 70 minute timepoint at elevated pH as compared to TC1 [2] |
| --- | --- | --- |
| C=CC(=O)N1CCN([C@@H](CC2CC2)c2ccc([C@H](C)Nc3ncc4c(n3)N(CC)C(=O)OC4)cc2)CC1 [TC1, 7-[[(1S)-1-[4-[(1S)-2-cyclopropyl-1-(4-prop-2-enoylpiperazin-1-yl)ethyl]phenyl]ethyl]amino]-1-ethyl-4H-pyrimido[4,5-d][1,3]oxazin-2-one] | more soluble in an acidic environment than a neutral one |  |
| C=CC(=O)N1CCN([C@@H](CC2CC2)c2ccc([C@H](C)Nc3ncc4c(n3)N(CC)C(=O)OC4)cc2)CC1 [TC2, 7-[[(1S)-1-[4-[(1S)-2-cyclopropyl-1-(4-prop-2-enoylpiperazin-1-yl)ethyl]phenyl]ethyl]amino]-1-ethyl-4H-pyrimido[4,5-d][1,3]oxazin-2-one, 2,5-dihydroxybenzoic acid (1:2)] |  | increased solution concentration |
